Measurements as given in PubChem BioAssay AID270 (DTP/NCI, 2004).
“And” between values parts separate entries of the source, which are not always exact repeats. Equal entries are not always repeated. Records with an inconclusive call do not appear.

Tested on: BDF1 mice, s.c. Lewis lung carcinoma, T/C %
Test: NCI In Vivo Anticancer Drug Screen. Data for tumor model Lewis Lung Carcinoma (subcutaneous) in B6D2F1 (BDF1) mice
Outline: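 Readout: survival or tumor size, expressed as treated (T) over vehicle control (C). Transplantable tumor implanted in mice; compound given to the treated group.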

C1CN1c1nc(N2CC2)nc(N2CC2)n1
T/C (endpoint: mean tumor weight, dose: 0.25 mg/kg/injection, schedule: Q01DX011 (ip), vehicle: saline, higher = larger tumour): 72 % of control and 80 % of control | T/C (endpoint: mean tumor weight, dose: 0.5 mg/kg/injection, schedule: Q01DX011 (ip), vehicle: saline, higher = larger tumour): 44 % of control and 46 % of control | T/C (endpoint: median survival time, dose: 0.05 mg/kg/injection, schedule: Q01DX009 (ip), vehicle: saline, higher = longer survival): 96 % of control and 113 % of control | T/C (endpoint: median survival time, dose: 0.1 mg/kg/injection, schedule: Q01DX009 (ip), vehicle: saline, higher = longer survival): 92 % of control and 106 % of control | T/C (endpoint: median survival time, dose: 0.12 mg/kg/injection, schedule: Q01DX009 (ip), vehicle: saline, higher = longer survival): 118 % of control | T/C (endpoint: median survival time, dose: 0.13 mg/kg/injection, schedule: Q01DX009 (ip), vehicle: saline, higher = longer survival): 90 % of control | T/C (endpoint: median survival time, dose: 0.2 mg/kg/injection, schedule: Q01DX009 (ip), vehicle: saline, higher = longer survival): 100 % of control | T/C (endpoint: median survival time, dose: 0.4 mg/kg/injection, schedule: Q01DX009 (ip), vehicle: saline, higher = longer survival): 89 % of control and 104 % of control | T/C (endpoint: median survival time, dose: 0.5 mg/kg/injection, schedule: Q01DX009 (ip), vehicle: saline with Tween-80, higher = longer survival): 123 % of control | T/C (endpoint: median survival time, dose: 0.5 mg/kg/injection, schedule: Q08DX002 (ip), vehicle: saline with Tween-80, higher = longer survival): 102 % of control | T/C (endpoint: median survival time, dose: 0.5 mg/kg/injection, schedule: Q08DX002 (ip), vehicle: saline, higher = longer survival): 92 % of control and 111 % of control and 123 % of control | T/C (endpoint: median survival time, dose: 1.0 mg/kg/injection, schedule: Q08DX002 (ip), vehicle: saline with Tween-80, higher = longer survival): 119 % of control | T/C (endpoint: median survival time, dose: 2.0 mg/kg/injection, schedule: Q08DX002 (ip), vehicle: saline with Tween-80, higher = longer survival): 115 % of control | T/C (endpoint: median survival time, dose: 2.0 mg/kg/injection, schedule: Q08DX002 (ip), vehicle: saline, higher = longer survival): 155 % of control | T/C (endpoint: median survival time, dose: 4.0 mg/kg/injection, schedule: Q08DX002 (ip), vehicle: saline, higher = longer survival): 93 % of control | T/C (endpoint: median survival time, dose: 250.0 micrograms/kg/injection, schedule: Q01DX009 (ip), vehicle: saline, higher = longer survival): 172 % of control | T/C (endpoint: median survival time, dose: 500.0 micrograms/kg/injection, schedule: Q01DX009 (ip), vehicle: saline, higher = longer survival): 110 % of control | T/C (endpoint: median tumor weight (est.), dose: 0.12 mg/kg/injection, schedule: Q01DX009 (ip), vehicle: saline with Tween-80, higher = larger tumour): 95 % of control | T/C (endpoint: median tumor weight (est.), dose: 0.25 mg/kg/injection, schedule: Q01DX009 (ip), vehicle: saline with Tween-80, higher = larger tumour): 81 % of control | T/C (endpoint: median tumor weight (est.), dose: 0.5 mg/kg/injection, schedule: Q01DX009 (ip), vehicle: saline with Tween-80, higher = larger tumour): 58 % of control | T/C (endpoint: median tumor weight (est.), dose: 0.5 mg/kg/injection, schedule: Q08DX002 (ip), vehicle: saline with Tween-80, higher = larger tumour): 97 % of control | T/C (endpoint: median tumor weight (est.), dose: 1.0 mg/kg/injection, schedule: Q08DX002 (ip), vehicle: saline with Tween-80, higher = larger tumour): 86 % of control | T/C (endpoint: median tumor weight (est.), dose: 2.0 mg/kg/injection, schedule: Q08DX002 (ip), vehicle: saline with Tween-80, higher = larger tumour): 49 % of control

CCCCN(C)N=Nc1ccc(CCC(=O)OCC)cc1
T/C (endpoint: median tumor weight (est.), dose: 72.0 mg/kg/injection, schedule: Q01DX009 (ip), vehicle: saline with Tween-80, higher = larger tumour): 107 % of control | T/C (endpoint: median tumor weight (est.), dose: 145.0 mg/kg/injection, schedule: Q01DX009 (ip), vehicle: saline with Tween-80, higher = larger tumour): 95 % of control | T/C (endpoint: median tumor weight (est.), dose: 290.0 mg/kg/injection, schedule: Q01DX009 (ip), vehicle: saline with Tween-80, higher = larger tumour): 61 % of control

N#CC(Cc1ccccc1)C(=O)O (configuration not stated)
T/C (endpoint: mean tumor weight, dose: 55.0 mg/kg/injection, schedule: Q01DX011 (ip), vehicle: other, higher = larger tumour): 80 % of control | T/C (endpoint: mean tumor weight, dose: 83.0 mg/kg/injection, schedule: Q01DX011 (ip), vehicle: other, higher = larger tumour): 68 % of control | T/C (endpoint: mean tumor weight, dose: 125.0 mg/kg/injection, schedule: Q01DX011 (ip), vehicle: other, higher = larger tumour): 75 % of control and 82 % of control | T/C (endpoint: mean tumor weight, dose: 187.0 mg/kg/injection, schedule: Q01DX011 (ip), vehicle: other, higher = larger tumour): 46 % of control | T/C (endpoint: mean tumor weight, dose: 250.0 mg/kg/injection, schedule: Q01DX011 (ip), vehicle: other, higher = larger tumour): 63 % of control | T/C (endpoint: mean tumor weight, dose: 500.0 mg/kg/injection, schedule: Q01DX011 (ip), vehicle: other, higher = larger tumour): 19 % of control

Cc1c2ccncc2c(C)c2c1[nH]c1ccccc12
T/C (endpoint: median survival time, dose: 37.5 mg/kg/injection, schedule: Q04DX003 (ip), vehicle: saline with Tween-80, higher = longer survival): 120 % of control | T/C (endpoint: median survival time, dose: 75.0 mg/kg/injection, schedule: Q04DX003 (ip), vehicle: saline with Tween-80, higher = longer survival): 87 % of control

c1ccc([B-]2([C+]3CCCCC3)N3CCCCC3C3CCCCN32)cc1 (configuration not stated)
T/C (endpoint: median survival time, dose: 12.5 mg/kg/injection, schedule: Q01DX009 (ip), vehicle: Klucel (hydroxypropylcellulose) (HPC), higher = longer survival): 89 % of control | T/C (endpoint: median survival time, dose: 25.0 mg/kg/injection, schedule: Q01DX009 (ip), vehicle: Klucel (hydroxypropylcellulose) (HPC), higher = longer survival): 106 % of control

Cc1ncc([N+](=O)[O-])n1CCO
T/C (endpoint: median survival time, dose: 37.5 mg/kg/injection, schedule: Q01DX009 (ip), vehicle: Klucel (hydroxypropylcellulose) (HPC), higher = longer survival): 98 % of control | T/C (endpoint: median survival time, dose: 37.5 mg/kg/injection, schedule: Q04DX003 (ip), vehicle: Klucel (hydroxypropylcellulose) (HPC), higher = longer survival): 92 % of control | T/C (endpoint: median survival time, dose: 75.0 mg/kg/injection, schedule: Q01DX009 (ip), vehicle: Klucel (hydroxypropylcellulose) (HPC), higher = longer survival): 106 % of control | T/C (endpoint: median survival time, dose: 75.0 mg/kg/injection, schedule: Q04DX003 (ip), vehicle: Klucel (hydroxypropylcellulose) (HPC), higher = longer survival): 97 % of control | T/C (endpoint: median survival time, dose: 150.0 mg/kg/injection, schedule: Q01DX009 (ip), vehicle: Klucel (hydroxypropylcellulose) (HPC), higher = longer survival): 96 % of control | T/C (endpoint: median survival time, dose: 150.0 mg/kg/injection, schedule: Q04DX003 (ip), vehicle: Klucel (hydroxypropylcellulose) (HPC), higher = longer survival): 96 % of control | T/C (endpoint: median survival time, dose: 300.0 mg/kg/injection, schedule: Q01DX009 (ip), vehicle: Klucel (hydroxypropylcellulose) (HPC), higher = longer survival): 97 % of control | T/C (endpoint: median survival time, dose: 300.0 mg/kg/injection, schedule: Q04DX003 (ip), vehicle: Klucel (hydroxypropylcellulose) (HPC), higher = longer survival): 100 % of control | T/C (endpoint: median survival time, dose: 600.0 mg/kg/injection, schedule: Q01DX009 (ip), vehicle: Klucel (hydroxypropylcellulose) (HPC), higher = longer survival): 105 % of control | T/C (endpoint: median survival time, dose: 600.0 mg/kg/injection, schedule: Q04DX003 (ip), vehicle: Klucel (hydroxypropylcellulose) (HPC), higher = longer survival): 91 % of control

CC1=C(/C=C/C(C)=C/C=C/C(C)=C/C(=O)O)C(C)(C)CCC1
T/C (endpoint: median survival time, dose: 6.25 mg/kg/injection, schedule: Q01DX005 (ip), vehicle: saline with Tween-80, higher = longer survival): 109 % of control | T/C (endpoint: median survival time, dose: 8.0 mg/kg/injection, schedule: Q01DX009 (ip), vehicle: saline with Tween-80, higher = longer survival): 102 % of control | T/C (endpoint: median survival time, dose: 16.0 mg/kg/injection, schedule: Q01DX009 (ip), vehicle: saline with Tween-80, higher = longer survival): 93 % of control | T/C (endpoint: median survival time, dose: 32.0 mg/kg/injection, schedule: Q01DX009 (ip), vehicle: saline with Tween-80, higher = longer survival): 93 % of control

COc1cc(OC)cc(-c2cc(=O)c3c(OC)c(OC)c(OC)c(OC)c3o2)c1
T/C (endpoint: mean tumor weight, dose: 25.0 mg/kg/injection, schedule: Q01DX011 (sc), vehicle: steriod suspending solution, higher = larger tumour): 64 % of control | T/C (endpoint: mean tumor weight, dose: 50.0 mg/kg/injection, schedule: Q01DX011 (sc), vehicle: steriod suspending solution, higher = larger tumour): 87 % of control | T/C (endpoint: mean tumor weight, dose: 100.0 mg/kg/injection, schedule: Q01DX011 (sc), vehicle: steriod suspending solution, higher = larger tumour): 82 % of control | T/C (endpoint: mean tumor weight, dose: 200.0 mg/kg/injection, schedule: Q01DX011 (sc), vehicle: steriod suspending solution, higher = larger tumour): 81 % of control

CCC[CH2][Sn]1([CH2]CCC)[O]OC(c2ccc(C)cc2)[O]1 (configuration not stated)
T/C (endpoint: median survival time, dose: 0.19 mg/kg/injection, schedule: Q01DX009 (ip), vehicle: saline with Tween-80, higher = longer survival): 98 % of control | T/C (endpoint: median survival time, dose: 0.75 mg/kg/injection, schedule: Q01DX009 (ip), vehicle: saline with Tween-80, higher = longer survival): 107 % of control | T/C (endpoint: median survival time, dose: 1.5 mg/kg/injection, schedule: Q01DX009 (ip), vehicle: saline with Tween-80, higher = longer survival): 98 % of control | T/C (endpoint: median survival time, dose: 3.0 mg/kg/injection, schedule: Q01DX009 (ip), vehicle: saline with Tween-80, higher = longer survival): 119 % of control | T/C (endpoint: median survival time, dose: 3.13 mg/kg/injection, schedule: Q01DX009 (ip), vehicle: saline with Tween-80, higher = longer survival): 121 % of control

O=C(O)CC(NC(=O)CP(=O)(O)O)C(=O)O.[NH-]C1CCCCC1[NH-].[Pt+2] (configuration not stated)
T/C (endpoint: median survival time, dose: 2.0 mg/kg/injection, schedule: Q01DX009 (ip), vehicle: other, higher = longer survival): 90 % of control | T/C (endpoint: median survival time, dose: 4.0 mg/kg/injection, schedule: Q01DX009 (ip), vehicle: other, higher = longer survival): 92 % of control | T/C (endpoint: median survival time, dose: 6.0 mg/kg/injection, schedule: Q01DX009 (ip), vehicle: other, higher = longer survival): 95 % of control | T/C (endpoint: median survival time, dose: 6.0 mg/kg/injection, schedule: Q04DX003 (ip), vehicle: other, higher = longer survival): 102 % of control | T/C (endpoint: median survival time, dose: 8.0 mg/kg/injection, schedule: Q01DX009 (ip), vehicle: other, higher = longer survival): 96 % of control | T/C (endpoint: median survival time, dose: 12.0 mg/kg/injection, schedule: Q04DX003 (ip), vehicle: other, higher = longer survival): 100 % of control | T/C (endpoint: median survival time, dose: 18.0 mg/kg/injection, schedule: Q04DX003 (ip), vehicle: other, higher = longer survival): 88 % of control | T/C (endpoint: median survival time, dose: 24.0 mg/kg/injection, schedule: Q04DX003 (ip), vehicle: other, higher = longer survival): 102 % of control

CCC1CCC(NC(=O)N(CCF)N=O)CC1 (configuration not stated)
T/C (endpoint: median tumor weight (est.), dose: 50.0 mg/kg/injection, schedule: Q01DX001 (ip), vehicle: saline with Tween-80, higher = larger tumour): 62 % of control

CC(C)([NH-])CO.CC(C)([NH-])CO.[Cl][Cd][Cl]
T/C (endpoint: mean tumor weight, dose: 1.0 mg/kg/injection, schedule: Q01DX011 (ip), vehicle: other, higher = larger tumour): 122 % of control | T/C (endpoint: mean tumor weight, dose: 2.0 mg/kg/injection, schedule: Q01DX011 (ip), vehicle: other, higher = larger tumour): 77 % of control | T/C (endpoint: mean tumor weight, dose: 4.0 mg/kg/injection, schedule: Q01DX011 (ip), vehicle: other, higher = larger tumour): 75 % of control | T/C (endpoint: mean tumor weight, dose: 8.0 mg/kg/injection, schedule: Q01DX011 (ip), vehicle: other, higher = larger tumour): 97 % of control
